Measured values: patent US12642274B2, “Insect neuropeptides 8” (Solasta Bio Limited, priority 2023, dated 2026)
Square brackets hold non-standard residues; d marks the D form. pGlu = O=C1CC[C@@H](C(=O)O)N1

Legend:
Spodoptera frugiperda = assay: Lepidoptera artificial diet assay; assay type: in vivo; details: unformulated peptide 1×10^−4M in artificial diet, L1 larvae, one larva per cell, n=10, 168 hrs; compared to negative control vehicle and DDT (FIG. 4)
Source text: Frontier Lepidoptera Artificial diet was made up by preparing agar at 1% and then mixing it with artificial diet powder. Peptide solution was aliquoted in 10 cells and diet poured straight onto it. The final concentration of the peptide was 1×10^−4M, and each peptide was aliquoted in 10 cells. Once the dict solidified and cooled down, one L1 Spodoptera frugiperda larvae was infested in each cell. The trays were sealed with heat and let larva were allowed to develop for 168 hrs. Finally, pupation and mortality were scored for. Lepidoptera artificial diet assays were performed with SB-P-86, and compared to a negative control vehicle and the insecticide dichlorodiphenyltrichloroethane (DDT).

Plutella xylostella = assay: Leaf dip assay (IRAC method 018, Chinese cabbage); assay type: in vivo; details: unformulated peptide 2×10^−4 M in 0.5% DMSO, 8% ACN, 0.1% Tween-80 in water, 120 hours; Acetamiprid 0.005% as comparator; conducted by FERA (FIG. 5)
Experimental: Peptides were tested in a leaf dip bioassay using Chinese cabbage on IRAC method 018 against Plutella xylostella. Peptide concentration at 2×10^−4 M in a solution of 0.5% DMSO, 8% ACN, 0.1% Tween-80 in water. Acetamiprid (pesticide) was tested at 0.005%. Vehicle control comprised 0.5% DMSO, 8% ACN, 0.1% Tween-80 in water. Peptide SB-P-86 was tested by a Contract Research Organisation, FERA Science Ltd. The activity of SB-P-86 is shown in FIG. 5; SB-P-86 has good activity whilst being eco-friendly and targeted to specific pests unlike broad spectrum chemical insecticides such as Acetamiprid.

Substance: [Pyr]-LTFTSSWGG-[NH2] ([pGlu]LTFTSSWGG-NH2; SMILES CC(C)C[C@H](NC(=O)[C@@H]1CCC(=O)N1)C(=O)N[C@H](C(=O)N[C@@H](Cc1ccccc1)C(=O)N[C@H](C(=O)N[C@@H](CO)C(=O)N[C@@H](CO)C(=O)N[C@@H](Cc1c[nH]c2ccccc12)C(=O)NCC(=O)NCC(N)=O)[C@@H](C)O)[C@@H](C)O) [SB-P-86, AKH peptide according to the invention]
- activity (pupation and mortality scored) (Spodoptera frugiperda): much higher activity
- activity (leaf dip bioassay) (Plutella xylostella): good activity
